The experiment has as its system KRAS PDC multicell spheroid viability. Nature of the experiment: Anticancer human tumor 825966-067-R-J1-PDC patient-derived colon carcinoma cell line growth inhibition [KRAS2]. As to conditions: for viability, T/C: stronger effect = lower value. An excerpt: Multicellular complex tumor spheroid response to RAS pathway inhibitors in combination with a targeted agents in patient-derived cell lines with oncogenic KRAS variants from multiple cancer types
A high-throughput screen of multi-cell type tumor spheroids was designed to identify active combinations of targeted small molecules and KRAS pathway inhibitors. Complex spheroids include a stromal component modeled by human endothelial cells (HUVEC) and fibroblasts modeled by human mesenchymal stem cells (MSCs). The concentration ranges selected for each drug and investigational agent were based upon clinically achievable concentrations if the clinical Cmax of the agent was known.
Compounds. The drugs and investigational agents: BI-3406 (NSC825286), BAY-293 (NSC824723), batoprotafib (TNO155; NSC825523), sotorasib (AMG 510; NSC818433), MRTX1257 (NSC819558), elimusertib (BAY 1895344; NSC800525), molibresib (GSK525762; NSC774829), temuterkib (LY3214996; NSC803410), venetoclax (NSC766270), alisertib (NSC759677), olaparib (NSC753686), talazoparib (NSC767125), erdafitinib (NSC781556), ipatasertib (NSC767898), cabozantinib (NSC761068), nintedanib (NSC756659), abemaciclib (NSC768073), docetaxel (NSC628503), trametinib (NSC758246), and sapanisertib (NSC764658) were obtained from the National Cancer Institute (NCI) Developmental Therapeutics Program Chemical Repository. The FDA-approved anticancer drug set is available from the Developmental Therapeutics Program. […] The stock solutions were prepared in dimethyl sulfoxide (DMSO, Sigma-Aldrich, St. Louis, MO, cat. D2650) at 800-fold the tested concentration and stored at -70 degrees C prior to their use. All drugs and investigational agents were tested over a range starting from a high concentration at or near the clinical Cmax and decreasing in half-log increments. If the clinical Cmax for an agent had not been determined, the highest concentration tested was 10 microM.
Cell Culture. All cells were maintained in an incubator at 37 degrees C and 5% CO2 with 95% humidity. The PDC lines were cultured according to standard operating procedures established by the NCI PDMR (https://pdmr.cancer.gov/sops/default.htm). Briefly, all PDCs were thawed and cultured in Matrigel-coated flasks prepared with a working solution of 1X Ham's F-12 nutrient mix, without supplementation (Invitrogen, Waltham, MA, cat. 11765054), 100 U/mL penicillin-streptomycin (Invitrogen, cat. 15140122), and 2.5% Matrigel (Corning Inc., Corning, NY, cat. 354248) for the first three passages. All PDCs were cultured in complete DMEM/F-12 media containing advanced DMEM/F-12 (Invitrogen, cat. 12634028), 4.9% defined fetal bovine serum, heat inactivated (HyClone Laboratories Inc., Logan, UT, cat. SH30070.03HI), 389 ng/mL hydrocortisone (Sigma-Aldrich, cat. H4001), 9.7 ng/mL human EGF recombinant protein (Invitrogen, cat. PHG0313), 23.4 microg/mL adenine (Sigma-Aldrich, cat. A2786), 97.3 U/mL penicillin-streptomycin (Invitrogen, cat. 15140122), 1.9 mM L-glutamine (Invitrogen, cat. 25030081), and 9.7 microM Y-27632 dihydrochloride (Tocris Bioscience, Bristol, United Kingdom, cat. 1254). The PDCs were cultured in complete DMEM/F12 media without 9.7 microM Y-27632 dihydrochloride for at least two passages prior to the screen. The established cell line HOP-62 was cultured in RPMI 1640 medium, HEPES (Invitrogen, cat. 22400105) with 10% defined fetal bovine serum (HyClone Laboratories Inc., cat. SH30070.03) and 2 mM L-glutamine (Invitrogen, cat. 25030081). The pooled donor HUVEC were cultured in endothelial cell growth medium 2 (PromoCell, Heidelberg, Germany, cat. C-22011) and the hMSC were cultured in mesenchymal stem cell growth medium 2 (PromoCell, cat. C-28009). For all experiments, HUVEC and hMSC were used at passages </=5, while the malignant cell lines were used at passages </=15. […]

[1] abbreviates: compound alone, run of 08/19/2021.
[2] abbreviates: compound alone, run of 08/26/2021.
Where [3] appears, read: compound alone, run of 09/02/2021.

pIC50: −log10 of the molar value. Values joined by “and” are separate entries in the source; they are usually repeats but may differ in a detail not shown here. Equal values may be shown once. Some results are limits rather than exact numbers.
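Note: spheroids exposed to compounds for 7 days.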

By pIC50 is commonly meant the negative decadic logarithm of the IC50, by convention in mol/L. Turning to `C=CC(=O)N1CCN(c2nc(=O)n(-c3c(C)ccnc3C(C)C)c3nc(-c4c(O)cccc4F)c(F)cc23)C(C)C1` (stereo not drawn), the pIC50 reads like this: under setting [1], less than 5.00; under setting [2], less than 5.00; under setting [3], less than 5.00.

A word on the viability, T/C: it is the result in the treated group divided by that in the control group, in per cent. `C=CC(=O)N1CCN(c2nc(OCC3CCCN3C)nc3c2CCN(c2cccc4cccc(C)c24)C3)CC1CC#N` (stereo not drawn): for the setting “compound 0.1 µM”, the viability, T/C is 87.5% [middle of 17 runs]. For the same molecule, the pIC50 was less than 5.50 under setting [1]; less than 5.50 under setting [2]; < 5.50 and 5.62 under setting [3].

For the molecule `CC(=O)Nc1cccc(-n2c(=O)n(C3CC3)c(=O)c3c(Nc4ccc(I)cc4F)n(C)c(=O)c(C)c32)c1`, the viability, T/C is 96.8% [middle of 5 runs] (compound 0.0001 µM), 94.2% [middle of 5 runs] (compound 0.000316 µM) and 104% [middle of 5 runs] (compound 0.01 µM). The pIC50 (curve of compound) is < 7.50 and 7.55.

As to `CC(=O)OC12COC1CC(O)C1(C)C(=O)C(O)C3=C(C)C(OC(=O)C(O)C(NC(=O)OC(C)(C)C)c4ccccc4)CC(O)(C(OC(=O)c4ccccc4)C21)C3(C)C` (stereo not drawn), the viability, T/C is, setting by setting: (compound 0.01 µM) 20.3% [middle of 5 runs]; (compound 0.0316 µM) 23.2% [middle of 5 runs]; (compound 0.1 µM) 18.5% [middle of 5 runs]; (compound 0.316 µM) 23.7% [middle of 5 runs]; (compound 1 µM) 28.8% [middle of 5 runs]; (compound 3.16 µM) 36.5% [middle of 5 runs]. The pIC50 (curve of compound) is greater than 8.00.

In general, IC50 refers to the point on the concentration scale where inhibition reaches its midpoint. In the case of `CC(C)NCC(C(=O)N1CCN(c2ncnc3c2C(C)CC3O)CC1)c1ccc(Cl)cc1` (stereo not drawn), the viability, T/C runs as follows: (compound 0.316 µM) 113% [middle of 5 runs]; (compound 3.16 µM) 32.6% [middle of 5 runs]; (compound 10 µM) 10% [middle of 5 runs]. Also, the IC50 (curve of compound) was 2.24 µM [middle of 5 runs].

Consider `CC(C)n1nc(-c2ccc3oc(N)nc3c2)c2c(N)ncnc21`, for which the viability, T/C (compound 0.00316 µM) is 127% [middle of 5 runs]. In addition, where the note is “curve of compound”, the pIC50 was less than 7.00.

As for `CC1(C)CCC(CN2CCN(c3ccc(C(=O)NS(=O)(=O)c4ccc(NCC5CCOCC5)c([N+](=O)[O-])c4)c(Oc4cnc5[nH]ccc5c4)c3)CC2)=C(c2ccc(Cl)cc2)C1`, the viability, T/C is, setting by setting: (compound 0.1 µM) 90.1% [middle of 5 runs]; (compound 0.316 µM) 102% [middle of 5 runs]; (compound 3.16 µM) 29.4% [middle of 5 runs]; (compound 10 µM) 7.19% [middle of 5 runs]. The IC50 (curve of compound) is 2.03 µM [middle of 5 runs].

`CC1COCCN1c1cc(-c2ccnn2C)c2ccnc(-c3ccn[nH]3)c2n1` (stereo not drawn): the viability, T/C (compound 0.01 µM) is 110% [middle of 5 runs] and the viability, T/C (compound 3.16 µM) is 60% [middle of 5 runs].

As for `CC1OCC2(CCN(c3cnc(Sc4ccnc(N)c4Cl)c(N)n3)CC2)C1N` (stereo not drawn), the viability, T/C was 82% and 80.9% and 85.5% (compound 0.0316 µM); 92.7% [middle of 19 runs] (compound 0.1 µM). For the same molecule, the pIC50 under setting [1] was < 5.00 and 5.03; the pIC50 under setting [3] was < 5.00 and 5.09; the pIC50 (curve of compound) is 5.03 and 5.06 and < 5.00. The IC50 under setting [2] was 7.63 µM [middle of 5 runs].

Consider `CCN1CCN(Cc2ccc(Nc3ncc(F)c(-c4cc(F)c5nc(C)n(C(C)C)c5c4)n3)nc2)CC1`, for which the viability, T/C is, setting by setting: (compound 0.00316 µM) 98% [middle of 4 runs]; (compound 0.01 µM) 90.6% [middle of 5 runs]; (compound 0.1 µM) 95.5% [middle of 5 runs]; (compound 0.316 µM) 117% [middle of 5 runs]. For the same molecule, where the note is “curve of compound”, the pIC50 is less than 6.00.

Consider `CCNC(=O)CC1N=C(c2ccc(Cl)cc2)c2cc(OC)ccc2-n2c(C)nnc21` (stereo not drawn), for which, where the note is “compound 10 µM”, the viability, T/C was 83.8% [middle of 5 runs]. Besides, under “curve of compound”, the pIC50 was less than 5.00.

For the molecule `CN(C)C/C=C/C(=O)Nc1cc2c(Nc3ccc(F)c(Cl)c3)ncnc2cc1O[C@H]1CCOC1`, for the setting “compound 0.1 µM”, the viability, T/C was 105% [middle of 5 runs]. Besides, where the note is “curve of compound”, the pIC50 was less than 7.00.

As to `CNCc1ccccc1-c1csc(C(C)Nc2nc(C)nc3cc(OC)c(OC)cc23)c1` (stereo not drawn), the viability, T/C (compound 10 µM) is 0.22% [middle of 14 runs]. Moreover, the IC50 runs as follows: under setting [1], 2.3 µM [middle of 6 runs]; under setting [2], 3.18 µM [middle of 5 runs].

For `COC(=O)c1ccc2c(C(=Nc3ccc(N(C)C(=O)CN4CCN(C)CC4)cc3)c3ccccc3)c(O)[nH]c2c1`, the viability, T/C is, setting by setting: (compound 0.0316 µM) 93.7% [middle of 5 runs]; (compound 0.1 µM) 90.7% [middle of 5 runs]; (compound 0.316 µM) 92.2% [middle of 5 runs]; (compound 3.16 µM) 0.53% [middle of 5 runs]; (compound 10 µM) 0.29% [middle of 4 runs]. Besides, the IC50 (curve of compound) was 1.24 µM [middle of 5 runs].

`COc1cc(Nc2ncc3c(n2)-c2ccc(Cl)cc2C(c2c(F)cccc2OC)=NC3)ccc1C(=O)O`: the viability, T/C runs as follows: (compound 0.1 µM) 103% [middle of 5 runs]; (compound 1 µM) 114% [middle of 5 runs]; (compound 3.16 µM) 119% [middle of 5 runs]; (compound 10 µM) 132% [middle of 5 runs]. Besides, under “curve of compound”, the pIC50 is less than 5.00.

For the molecule `COc1cc(OC)cc(N(CCNC(C)C)c2ccc3ncc(-c4cnn(C)c4)nc3c2)c1`, the viability, T/C is 92.5% [middle of 5 runs] (compound 0.0316 µM), 89.2% [middle of 5 runs] (compound 0.1 µM), 91.1% [middle of 5 runs] (compound 0.316 µM) and 95.6% [middle of 5 runs] (compound 1 µM).

With `COc1cc2nc(C)nc(NC(C)c3cc(N)cc(C(F)(F)F)c3)c2cc1OC1CCOC1` (stereo not drawn), under setting [2], the IC50 is 5.81 µM [middle of 5 runs]. The pIC50 under setting [3] was < 5.00 and 5.12.

Turning to `COc1cc2nccc(Oc3ccc(NC(=O)C4(C(=O)Nc5ccc(F)cc5)CC4)cc3)c2cc1OC`, the viability, T/C (compound 0.0316 µM) was 102% [middle of 5 runs]; the viability, T/C (compound 0.316 µM) is 86.7% [middle of 5 runs]; the viability, T/C (compound 1 µM) is 83.7% [middle of 5 runs]; the viability, T/C (compound 3.16 µM) is 8.3% [middle of 5 runs]; the viability, T/C (compound 10 µM) was 7.11% [middle of 5 runs]. For the same molecule, the IC50 (curve of compound) is 1.75 µM [middle of 5 runs].

As for `Cn1nccc1Nc1nccc(-c2cc3c(s2)C(C)(C)N(CCN2CCOCC2)C3=O)n1`, the viability, T/C was 90.9% [middle of 5 runs] (compound 0.0316 µM); 94.8% [middle of 5 runs] (compound 0.1 µM); 109% [middle of 5 runs] (compound 0.316 µM); 96% [middle of 5 runs] (compound 3.16 µM); 81.8% [middle of 5 runs] (compound 10 µM). Further, the pIC50 (curve of compound) was less than 5.00.

For `Cn1ncnc1[C@H]1c2n[nH]c(=O)c3cc(F)cc(c23)N[C@@H]1c1ccc(F)cc1`, the viability, T/C (compound 0.01 µM) was 82.8% [middle of 5 runs]. Moreover, the pIC50 (curve of compound) was less than 7.00.

As to `O=C(c1cc(Cc2n[nH]c(=O)c3ccccc23)ccc1F)N1CCN(C(=O)C2CC2)CC1`, the viability, T/C by setting is: (compound 0.1 µM) 88.5% [middle of 5 runs]; (compound 3.16 µM) 79.6% [middle of 5 runs]. In addition, the pIC50 (curve of compound) is less than 5.00.
